Results reported in patent US7118895B2, “Process for producing aglycon by using diglycosidase and flavor-improved food containing the aglycon and converting agent to be used in the process” (Amano Enzyme Inc., priority 2000, dated 2006).

What was measured:
[1] = system: β-Glucosidase derived from A. niger; assay: Reactivity toward various isoflavone glycosides (HPLC); type: biochemical, Aspergillus niger; parameters: glucoside / aglycon: unit not given here; conditions: 55 °C, pH 4.0
Method: (§1) Diglycosidase was diluted with an acetate buffer of pH 4.0 to prepare a 0.75 AU/mL enzyme solution. As references, a similar operation was conducted using β-glucosidase (manufactured by Fluka) derived from Aspergillus niger, β-glucosidase (manufactured by Sigma) derived from almond, β-xylosidase derived from pectinase G (manufactured by Amano Enzyme Inc.). Each of purified products of isoflavone glycosides (glycitin, acetylglycitin, malonylglycitin, daidzin, acetyldaidzin, malonyldaidzin, genistin, acetylgenistin, malonylgenistin, all manufactured by Nacalai Tesque, Inc.) was dissolved in methanol to prepare each 2 mM substrate solution. The reaction was carried out by mixing 10 μL of a substrate solution, 200 μL of 20 mM acetate buffer (pH 4.0), and 40 μL of each purified enzyme solution at a total liquid volume of 250 μL. The reaction was carried out at 55° C. and isolation of an aglycon isoflavone from an isoflavone glycoside in the reaction mixture was detected by HLPC at 0, 1, 3, and 6 hours of the reaction.
(§2) To the reaction mixture was added 700 μL of ethanol, followed by stirring and ultrasonication. After centrifugation at 15,000 rpm and 4° C. for 10 minutes, the supernatant was filtered through a filter and then the filtrate was applied to HPLC.
(§3) The isoflavone glycoside and aglycon isoflavone contained in the filtrate was separated and detected by a high performance liquid chromatography (HPLC, Shimadzu CLASS LC-10 system) using TOSOH TSK gel ODS-80TM column (manufactured by Tosoh Corporation). […] The absorbance at 260 nm was detected by a UV detector (Shimadzu, SPD-10AV). Using purified products (manufactured by Nacalai Tesque, Inc.) of the above isoflavone glycosides and aglycon isoflavones, the isoflavone glycoside and aglycon isoflavone were quantitatively determined according to a calibration curve method. By the way, unless otherwise stated, the measuring conditions of HPLC herein mean those described in the example.

[2] = system: Crude diglycosidase; assay: Examination of substrate concentration in the conversion into isoflavone aglycons by diglycosidase using soybean materials; type: biochemical, Penicillium multicolor IAM7153; conditions: for Decomposition efficiency: ratio of each glycoside/aglycon within its isoflavone family: roasted soy flour;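 on Decomposition efficiency: ratio of each glycoside/aglycon within its isoflavone family: percent of the isoflavone family total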
How it was run: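 Soybean materials (roasted soy flour, soymilk, defatted soybean, concentrated soy protein) at 2–30% (w/v) in 20 mM acetate pH 4.0 were reacted with crude diglycosidase at 55° C with shaking; enzyme solution added was 1.88 AU/mL. Samples taken at 0, 1, 3 and 6 h were ethanol-extracted and analyzed by HPLC.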

[3] = system: Diglycosidase derived from P. multicolor; assay: Reactivity toward various isoflavone glycosides (HPLC); type: biochemical, Penicillium multicolor; parameters: glucoside / aglycon: unit not given here; conditions: 55 °C, pH 4.0
Method: as §1, §2, §3

[4] = substrate concentration 2%, heat treatment of enzyme no, reaction time 0 h
[5] = substrate concentration 2%, heat treatment of enzyme no, reaction time 1 h
[6] = substrate concentration 2%, heat treatment of enzyme no, reaction time 3 h
[7] = substrate concentration 2%, heat treatment of enzyme no, reaction time 6 h
[8] = substrate concentration 2%, heat treatment of enzyme yes, reaction time 6 h
[9] = substrate concentration 5%, heat treatment of enzyme no, reaction time 0 h
[10] = substrate concentration 5%, heat treatment of enzyme no, reaction time 1 h
[11] = substrate concentration 5%, heat treatment of enzyme no, reaction time 3 h
[12] = substrate concentration 5%, heat treatment of enzyme no, reaction time 6 h
[13] = substrate concentration 5%, heat treatment of enzyme yes, reaction time 6 h
[14] = substrate concentration 10%, heat treatment of enzyme no, reaction time 0 h
[15] = substrate concentration 10%, heat treatment of enzyme no, reaction time 1 h
[16] = substrate concentration 10%, heat treatment of enzyme no, reaction time 3 h
[17] = substrate concentration 10%, heat treatment of enzyme no, reaction time 6 h
[18] = substrate concentration 10%, heat treatment of enzyme yes, reaction time 6 h

SMILES: CC(=O)OC[C@H]1O[C@@H](Oc2ccc3c(=O)c(-c4ccc(O)cc4)coc3c2)[C@H](O)[C@@H](O)[C@@H]1O [acetyldaidzin, 6″-O-acetyldaidzin]
- aglycon ([1]; Reaction time 0 h): 0
- glucoside ([1]; Reaction time 0 h): 100
- aglycon ([1]; Reaction time 1 h): 4.4
- glucoside ([1]; Reaction time 1 h): 95.6
- aglycon ([1]; Reaction time 3 h): 6.4
- glucoside ([1]; Reaction time 3 h): 93.6
- aglycon ([1]; Reaction time 6 h): 9
- glucoside ([1]; Reaction time 6 h): 91
- Decomposition efficiency: ratio of each glycoside/aglycon within its isoflavone family [2, 4]: 47.6%
- Decomposition efficiency: ratio of each glycoside/aglycon within its isoflavone family [2, 5]: 9.2%
- Decomposition efficiency: ratio of each glycoside/aglycon within its isoflavone family [2, 6]: not detected
- Decomposition efficiency: ratio of each glycoside/aglycon within its isoflavone family [2, 7]: not detected
- Decomposition efficiency: ratio of each glycoside/aglycon within its isoflavone family [2, 8]: 47.2%
- Decomposition efficiency: ratio of each glycoside/aglycon within its isoflavone family [2, 9]: 46.1%
- Decomposition efficiency: ratio of each glycoside/aglycon within its isoflavone family [2, 10]: 20.9%
- Decomposition efficiency: ratio of each glycoside/aglycon within its isoflavone family [2, 11]: 12.5%
- Decomposition efficiency: ratio of each glycoside/aglycon within its isoflavone family [2, 12]: 6.8%
- Decomposition efficiency: ratio of each glycoside/aglycon within its isoflavone family [2, 13]: 46.1%
- Decomposition efficiency: ratio of each glycoside/aglycon within its isoflavone family [2, 14]: 38.5%
- Decomposition efficiency: ratio of each glycoside/aglycon within its isoflavone family [2, 15]: 30.5%
- Decomposition efficiency: ratio of each glycoside/aglycon within its isoflavone family [2, 16]: 21.5%
- Decomposition efficiency: ratio of each glycoside/aglycon within its isoflavone family [2, 17]: 14.9%
- Decomposition efficiency: ratio of each glycoside/aglycon within its isoflavone family [2, 18]: 47.7%
- Decomposition efficiency: ratio of each glycoside/aglycon within its isoflavone family ([2]; substrate concentration 20%, heat treatment of enzyme no, reaction time 0 h): 46.1%
- Decomposition efficiency: ratio of each glycoside/aglycon within its isoflavone family ([2]; substrate concentration 20%, heat treatment of enzyme no, reaction time 1 h): 40.7%
- Decomposition efficiency: ratio of each glycoside/aglycon within its isoflavone family ([2]; substrate concentration 20%, heat treatment of enzyme no, reaction time 3 h): 32.6%
- Decomposition efficiency: ratio of each glycoside/aglycon within its isoflavone family ([2]; substrate concentration 20%, heat treatment of enzyme no, reaction time 6 h): 25.1%
- Decomposition efficiency: ratio of each glycoside/aglycon within its isoflavone family ([2]; substrate concentration 20%, heat treatment of enzyme yes, reaction time 6 h): 47.2%
- Decomposition efficiency: ratio of each glycoside/aglycon within its isoflavone family ([2]; substrate concentration 30%, heat treatment of enzyme no, reaction time 0 h): 47.6%
- Decomposition efficiency: ratio of each glycoside/aglycon within its isoflavone family ([2]; substrate concentration 30%, heat treatment of enzyme no, reaction time 1 h): 46.4%
- Decomposition efficiency: ratio of each glycoside/aglycon within its isoflavone family ([2]; substrate concentration 30%, heat treatment of enzyme no, reaction time 3 h): 42.6%
- Decomposition efficiency: ratio of each glycoside/aglycon within its isoflavone family ([2]; substrate concentration 30%, heat treatment of enzyme no, reaction time 6 h): 34.3%
- Decomposition efficiency: ratio of each glycoside/aglycon within its isoflavone family ([2]; substrate concentration 30%, heat treatment of enzyme yes, reaction time 6 h): 47.4%
- Decomposition efficiency of daidzin family in defatted soybean [2, 4]: not detected
- Decomposition efficiency of daidzin family in defatted soybean [2, 5]: not detected
- Decomposition efficiency of daidzin family in defatted soybean [2, 6]: not detected
- Decomposition efficiency of daidzin family in defatted soybean [2, 7]: not detected
- Decomposition efficiency of daidzin family in defatted soybean [2, 8]: not detected
- Decomposition efficiency of daidzin family in defatted soybean [2, 9]: not detected
- Decomposition efficiency of daidzin family in defatted soybean [2, 10]: not detected
- Decomposition efficiency of daidzin family in defatted soybean [2, 11]: not detected
- Decomposition efficiency of daidzin family in defatted soybean [2, 12]: not detected
- Decomposition efficiency of daidzin family in defatted soybean [2, 13]: not detected
- Decomposition efficiency of daidzin family in defatted soybean [2, 14]: not detected
- Decomposition efficiency of daidzin family in defatted soybean [2, 15]: not detected
- Decomposition efficiency of daidzin family in defatted soybean [2, 16]: not detected
- Decomposition efficiency of daidzin family in defatted soybean [2, 17]: not detected
- Decomposition efficiency of daidzin family in defatted soybean [2, 18]: not detected
- aglycon ([3]; Reaction time 0 h): 0
- glucoside ([3]; Reaction time 0 h): 100
- aglycon ([3]; Reaction time 1 h): 89.6
- glucoside ([3]; Reaction time 1 h): 10.4
- aglycon ([3]; Reaction time 3 h): 96.2
- glucoside ([3]; Reaction time 3 h): 3.8
- aglycon ([3]; Reaction time 6 h): 96.2
- glucoside ([3]; Reaction time 6 h): 3.8
